Experiment [1] addresses T1, human PAR-1 (Homo sapiens, UniProt P25116).
T1 construct: host or cells: HEK293/Ga15 recombinant cell line
T1 sequence (P25116 22-425): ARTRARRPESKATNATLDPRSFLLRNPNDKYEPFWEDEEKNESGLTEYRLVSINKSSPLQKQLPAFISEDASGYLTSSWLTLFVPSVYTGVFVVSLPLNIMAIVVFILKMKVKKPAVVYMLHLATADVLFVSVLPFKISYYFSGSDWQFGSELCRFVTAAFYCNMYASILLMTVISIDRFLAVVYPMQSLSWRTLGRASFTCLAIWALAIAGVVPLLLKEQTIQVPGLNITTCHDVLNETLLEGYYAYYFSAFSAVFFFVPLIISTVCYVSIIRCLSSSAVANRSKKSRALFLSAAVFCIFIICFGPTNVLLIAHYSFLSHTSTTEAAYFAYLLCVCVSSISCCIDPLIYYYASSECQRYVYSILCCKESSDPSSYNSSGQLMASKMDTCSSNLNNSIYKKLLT
Briefly: Inhibitory activity against PAR-1, calcium ion flux fluorescence method (FLIPR). In kind it is cell-based. The following applies: HEK293/Ga15 cells expressing human PAR-1, TFLLR-NH2 10 μM, starting concentration 30 μM. The method, then:
The inhibitory activity of the title compounds against human PAR-1 was determined by a calcium ion flux fluorescence method (an FLIPR method). The method thereof was reported in the literature of Zhong et al. [Zhong et al. J Biomol Struct Dyn, 2017, 35(13):2853].
An HEK293/Ga15 recombinant cell line (HD Biosciences, Shanghai, China) stably expressing human PAR-1 was cultured in a DMEM (Thermo Fisher Scientific, Shanghai) culture solution (containing 10% calf serum, 800 μg/mL G418). Incubator conditions were 37° C. and an air humidity with 5% CO2.
On the first day, 20 μL per well of PAR-1 cells at a concentration of 4E+5 cells/mL were seeded in a 384-well analysis plate (Corning 3712). […] On the second day, a culture solution in each well was poured off. Then, 20 μL of 1×loading dye (2 μM Fluo-8 AM in 1×HBSS with 20 mM HEPES, 1 mM Probenecid, 0.025% Pluronic F-127 assay buffer) was added in each well. The cell analysis plate was cultured for 1 hour at a room temperature.
The compounds were dissolved into 100% DMSO to prepare a 10 mM stock solution, which was stored at −20° C. On the day of use, the compound stock solution was thawed at a room temperature. Each compound was subjected to 1:3 serial dilution at 11 concentration points with a DMEM culture solution with a starting concentration of 30 μM. Each compound was subjected to double dilution for testing. A positive control compound was diluted in the same way with SCH79797 with a starting concentration of 30 μM.
The cell analysis plate was placed in a FLIPR instrument (Molecular Device) and 10 μL of compounds (3× of a final concentration) in a compound plate was added to corresponding wells of the cell analysis plate. After 10 minutes, 10 μL of TFLLR-NH2 (TFA) (a final concentration of 10 μM) was added to each well to stimulate generation of intracellular calcium flux signals. Ca^++-dependent fluorescence signals were continuously monitored at excitation wavelengths of 470/495 nm and emission wavelengths of 515/575 nm to analyze the inhibitory activity of the compounds.
Data were collected and analyzed by using an FLIPR program. The inhibitory (or agonistic) activity of the compounds at each concentration was assessed by fluorescence peaks. IC50 values of the compounds were calculated by using EXCEL and PRISM programs.

Experiment [2] addresses T2, rP2X3 (Rattus norvegicus, UniProt P49654).
T2 construct: expressed in transfected cells; host or cells: HEK293
T2 sequence (P49654 1-397): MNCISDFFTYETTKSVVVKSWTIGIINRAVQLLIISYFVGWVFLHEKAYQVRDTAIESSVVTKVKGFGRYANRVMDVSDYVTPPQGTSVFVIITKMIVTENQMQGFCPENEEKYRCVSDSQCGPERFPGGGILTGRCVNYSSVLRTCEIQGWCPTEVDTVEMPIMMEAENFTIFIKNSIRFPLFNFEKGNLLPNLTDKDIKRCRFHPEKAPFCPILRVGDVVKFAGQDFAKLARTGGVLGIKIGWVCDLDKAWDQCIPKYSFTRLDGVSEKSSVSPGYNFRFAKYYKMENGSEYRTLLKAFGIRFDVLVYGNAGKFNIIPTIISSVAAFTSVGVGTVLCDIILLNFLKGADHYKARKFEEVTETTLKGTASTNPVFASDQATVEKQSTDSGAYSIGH
The experiment in a line: Inhibitory activity against P2X3 in rats (electrophysiological method). It is filed as cell-based.

The target of experiment [3] is T3, gpP2X3 (Cavia porcellus, UniProt H0VWY5).
T3 sequence (H0VWY5 1-391): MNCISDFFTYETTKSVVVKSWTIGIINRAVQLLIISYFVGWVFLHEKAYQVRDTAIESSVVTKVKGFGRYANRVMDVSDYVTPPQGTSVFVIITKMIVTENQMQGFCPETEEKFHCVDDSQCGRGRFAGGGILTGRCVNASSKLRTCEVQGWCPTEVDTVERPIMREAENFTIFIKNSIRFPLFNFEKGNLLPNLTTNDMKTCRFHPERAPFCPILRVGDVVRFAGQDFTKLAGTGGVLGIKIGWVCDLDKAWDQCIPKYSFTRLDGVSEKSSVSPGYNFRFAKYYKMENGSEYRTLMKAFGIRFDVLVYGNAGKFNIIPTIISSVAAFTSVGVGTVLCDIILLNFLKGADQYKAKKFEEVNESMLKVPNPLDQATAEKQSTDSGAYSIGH
The experiment in a line: Inhibitory activity against P2X3 in guinea pigs (electrophysiological method). It is filed as cell-based. The following applies: guinea pig P2X3, electrophysiological method.

Experiment [4] addresses T4, human P2X3 (Homo sapiens, UniProt P56373).
T4 sequence (P56373 1-397): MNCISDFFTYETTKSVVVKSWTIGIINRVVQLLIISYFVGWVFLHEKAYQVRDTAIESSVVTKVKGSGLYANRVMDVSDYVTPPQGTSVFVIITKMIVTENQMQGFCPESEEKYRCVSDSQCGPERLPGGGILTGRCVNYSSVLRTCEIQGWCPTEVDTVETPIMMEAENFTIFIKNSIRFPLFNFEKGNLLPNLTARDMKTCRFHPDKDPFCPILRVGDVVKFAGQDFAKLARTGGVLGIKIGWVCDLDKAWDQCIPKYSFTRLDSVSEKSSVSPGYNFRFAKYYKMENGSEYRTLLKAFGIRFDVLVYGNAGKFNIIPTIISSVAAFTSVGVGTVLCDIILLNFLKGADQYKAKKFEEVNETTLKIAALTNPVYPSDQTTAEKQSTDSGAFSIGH
The experiment in a line: cell-based.

Experiment [5] deals with T5, human P2X4 (Homo sapiens, UniProt Q99571).
T5 construct: expressed in transfected cells; host or cells: HEK293
T5 sequence (Q99571 1-388): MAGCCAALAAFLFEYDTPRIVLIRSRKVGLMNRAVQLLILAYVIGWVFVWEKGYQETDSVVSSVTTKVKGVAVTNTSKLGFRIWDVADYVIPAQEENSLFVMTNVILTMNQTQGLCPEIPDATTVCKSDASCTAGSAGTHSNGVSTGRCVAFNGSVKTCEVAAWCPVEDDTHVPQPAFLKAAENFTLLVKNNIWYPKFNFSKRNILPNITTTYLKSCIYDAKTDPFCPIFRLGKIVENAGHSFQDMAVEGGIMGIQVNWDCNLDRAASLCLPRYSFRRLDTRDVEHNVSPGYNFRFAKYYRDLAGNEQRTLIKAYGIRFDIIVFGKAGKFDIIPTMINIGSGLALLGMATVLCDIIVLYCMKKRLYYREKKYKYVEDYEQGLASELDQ
The experiment in a line: Inhibitory activity against human P2X4 (electrophysiological method). As to conditions: read-out: hP2X4 (IC50). In kind it is cell-based.

As to `Cc1ccc(C2=NN(C(=O)N[C@H](C)c3ccc(C(F)(F)F)nc3)C[C@@H]2N2CCOCC2=O)cc1` [Compound 1, (S)-4-(3-oxomorpholin-4-yl)-3-(4-methylphenyl)-N-((R)-1-(6-(trifluoromethyl)pyridin-3-yl)ethyl)-4,5-dihydro-1H-pyrazol-1-carboxamide], in experiment [1], the half-maximal inhibitory concentration (IC50) is more than 30000 nM.

Regarding `Cc1ccc(C2=NN(C(=O)N[C@H](C)c3ccc(C(F)(F)F)nc3)C[C@@H]2N2CCN(C)CC2=O)cc1` [Compound 17, (S)-4-(4-methyl-2-oxopiperazin-1-yl)-3-(4-methylphenyl)-N-((R)-1-(6-(trifluoromethyl)pyridin-3-yl)ethyl)-4,5-dihydro-1H-pyrazol-1-carboxamide], the IC50 was more than 30000 nM in experiment [1], 140 nM in experiment [2] and 387 nM in experiment [3].

Consider `Cc1ccc(C2=NN(C(=O)N[C@H](C)c3ccc(C(F)(F)F)cc3)C[C@@H]2N2CCOCC2=O)cc1` [Compound 20], for which the IC50 in experiment [1] was more than 30000 nM.

With `Cc1ccc(C2=NN(C(=O)N[C@H](C)c3ccc(C(F)(F)F)nc3)C[C@@H]2N2CCCC2=O)cc1` [Compound 21], the IC50 in experiment [1] was more than 30000 nM; in experiment [4] it was 129 nM; in experiment [5] it was more than 20000 nM.

Regarding `Cc1ccc(C2=NN(C(=O)N[C@H](C)c3ccc(C(F)(F)F)nc3)C[C@H]2N2CCOC2=O)cc1` [Compound 22a, (R)-4-(2-oxooxazolidin-3-yl)-3-(4-methylphenyl)-N-((R)-1-(6-(trifluoromethyl)pyridin-3-yl)ethyl)-4,5-dihydro-1H-pyrazol-1-carboxamide], the IC50 is 57 nM in experiment [2], 578 nM in experiment [3], 38 nM in experiment [4] and more than 20000 nM in experiment [5].

`Cc1ccc(C2=NN(C(=O)N[C@H](C)c3ccc(C(F)(F)F)nn3)C[C@@H]2N2CCOCC2=O)cc1` [Compound 30, (S)-4-(3-oxomorpholin-4-yl)-3-(4-methylphenyl)-N-((R)-1-(6-(trifluoromethyl)pyridazin-3-yl)ethyl)-4,5-dihydro-1H-pyrazol-1-carboxamide]: in experiment [1], the IC50 is more than 30000 nM.

As for `Cc1ccc(C2=NN(C(=O)N[C@H](C)c3ccc(Cl)nn3)C[C@@H]2N2CCOC2=O)cc1` [Compound 31], in experiment [1], the IC50 is more than 30000 nM.

Take `Cc1ccc(C2=NN(C(=O)N[C@H](C)c3cnc(C(F)(F)F)nc3)C[C@H]2N2CCCC2=O)cc1` [Compound 32a, (R)-4-(2-oxopyrrolidin-1-yl)-3-(4-methylphenyl)-N-((R)-1-(2-(trifluoromethyl)pyrimidin-5-yl)ethyl)-4,5-dihydro-1H-pyrazol-1-carboxamide]: the results for the IC50 in experiment [4] and in experiment [5] were 82 nM and more than 20000 nM, respectively.

In the case of `Cc1ccc(C2=NN(C(=O)N[C@H](C)c3cnc(C(F)(F)F)nc3)C[C@@H]2N2CCOC2=O)cc1` [Compound 40, (S)-4-(2-oxooxazolidin-3-yl)-3-(4-methylphenyl)-N-((R)-1-(2-(trifluoromethyl)pyrimidin-5-yl)ethyl)-4,5-dihydro-1H-pyrazol-1-carboxamide], the IC50 in experiment [1] was more than 30000 nM.

For the compound `Cc1ccc(C2=NN(C(=O)N[C@H](C)c3cnc(C(F)(F)F)nc3)C[C@@H]2N2CCN(C)C2=O)cc1` [Compound 41], in experiment [1], the IC50 was more than 30000 nM.

In experiment [4], `Cc1ccc(C2=NN(C(=O)N[C@H](C)c3cnc(C(F)(F)F)nc3)C[C@@H]2n2cccn2)cc1` [Compound 42] displayed an IC50 of 4910 nM.

Take `Cc1ncc([C@@H](C)NC(=O)N2C[C@H](N3CCOC3=O)C(c3ccc(Cl)cc3)=N2)cn1` [Compound 43, (S)-4-(2-oxooxazolidin-3-yl)-3-(4-chlorophenyl)-N-((R)-1-(2-methylpyrimidin-5-yl)ethyl)-4,5-dihydro-1H-pyrazol-1-carboxamide]: in experiment [4], 331 nM corresponded to half-maximal inhibition (IC50).

In experiment [4], `C[C@@H](NC(=O)N1C[C@H](N2CCCC2=O)C(c2ccc(F)cc2)=N1)c1cnc(Cl)nc1` [Compound 44, (S)-4-(2-oxopyrrolidin-1-yl)-3-(4-fluorophenyl)-N-((R)-1-(2-chloropyrimidin-5-yl)ethyl)-4,5-dihydro-1 H-pyrazol-1-carboxamide] came in with an IC50 of 233 nM.

`C[C@@H](NC(=O)N1C[C@@H](N2CCCC2=O)C(c2ccc(F)cc2)=N1)c1cnc(Cl)nc1` [Compound 44a, (R)-4-(2-oxopyrrolidin-1-yl)-3-(4-fluorophenyl)-N-((R)-1-(2-chloropyrimidin-5-yl)ethyl)-4,5-dihydro-1H-pyrazol-1-carboxamide]: the midpoint of inhibition in experiment [4], the IC50, lay at 421 nM.

As for `Cc1ccc(C2=NN(C(=O)N[C@H](C)c3nc(C)no3)C[C@@H]2N2CCCC2=O)cc1` [Compound 45], the IC50 in experiment [1] is more than 30000 nM.

A word on the IC50: it is the concentration needed to halve the response being measured.
